For assay [1], the system named is PD-L1. The assay is described as follows: Immunofluorescence of PD-L1 in MDA-MB-231 cells, Example 9. The assay is classed as cell-based, human. To be noted: 50 μM, 72 hours. On the procedure: (§1) 1×10^4 MDA-MB-231 cells were seeded onto coverslips in 12 well plates with DMEM media. Cells were treated with 50 μM P1, P2, P3 or P4 (synthesized in accordance with Example 5) or vehicle (water) for 72 hours. Cells were fixed with 3.7% formaldehyde and permeabilized with 2% Triton-X-100, then probed with primary mouse antibodies to CSV, DMNT1, H3K9me3 or 5-methylcytosine; primary goat antibodies to SNAI1, SETDB1 or ABCB5; or primary rabbit antibodies to PD-L1, EGFR, EHMT2; followed by the corresponding secondary antibody conjugated to anti-mouse Alexa-Fluor 568, anti-goat Alexa-Fluor 633 or anti-rabbit Alexa-Fluor 488. Confocal laser scanning microscopy was used to measure the TFI, TNFI and TCFI as described above. At least 20 individual cells were analyzed per sample.

Assay [2] concerns EGFR. The assay is described as follows: Immunofluorescence of EGFR in MDA-MB-231 cells. Conditions: 50 μM, 72 hours. The assay is classed as cell-based, human. On the procedure: as §1
Assay [3] has as its system PD-L1 acetylated at lysine 263. The assay is described as follows: Immunofluorescence (confocal) of acetylated PD-L1 in MDA-MB-231 cells, Example 6. The assay is classed as cell-based, human. To be noted: 50 μM, 72 hours. The procedure: (§2) Confocal laser scanning microscopy was employed to investigate the effect of P1, P2 and P3 (synthesized in accordance with Example 5) on the nuclear expression of PD-L1 and acetylated PD-L1 (PDL1-Ac) (FIG. 9).
(§3) 1×10^4 MDA-MB-231 cells were seeded onto coverslips in 12 well plates with DMEM media overnight. Cells were treated with 50 μM P1, P2, P3 or P4 or vehicle (water) for 72 hours. Treated cells were fixed with 3.7% formaldehyde, and then permeabilised by incubating with 1% Triton X-100 for 20 min. Cells were then probed with a rabbit anti-PD-L1 antibody (Santa Cruz Biotechnology) or rabbit anti-acetylated PD-L1 (generated as described above) and visualized with a donkey anti-rabbit AF 488. Cover slips were mounted on glass microscope slides with ProLong Diamond Antifade reagent (Life Technologies). Protein targets were localized using confocal laser scanning microscopy. Single 0.5 μm sections were obtained using a Leica DMI8 microscope using 100× oil immersion lens running LAX software. The final image was obtained by averaging four sequential images of the same section. Digital images were analyzed using ImageJ software as described above.

The test system of assay [4] is PD-1. The assay is described as follows: Immunofluorescence of PD-1 in Jurkat T-cells. In kind it is cell-based. To be noted: 50 μM, 72 hours, relative to the control. On the procedure:
1×10^4 Jurkat T-cells were seeded onto coverslips in 12 well plates with DMEM media. Cells were treated with 50 μM P1, P2, P3 (synthesized in accordance with Example 5) or vehicle (water) for 72 hours. Cells were fixed with 3.7% formaldehyde and permeabilized with 2% Triton-X-100, then probed with a primary mouse antibody to PD-1 directly conjugated to Alexa-Fluor 647. Confocal laser scanning microscopy was used to measure the TNFI, TCFI and Fn/c as described above. At least 20 individual cells were analyzed per sample.

The subject of assay [5] is DMNTI. The assay is described as follows: Immunofluorescence of DMNTI in MDA-MB-231 cells. In kind it is cell-based, human. Conditions: 50 μM, 72 hours. The procedure: (§4) Cells were treated with 50 μM P1, P2, P3 or P4 (synthesized in accordance with Example 5) or vehicle (water) for 72 hours. […] Confocal laser scanning microscopy was used to measure the […] and TCFI as described above. At least 20 individual cells were analyzed per sample.

Assay [6] relates to SNAI1. The assay is described as follows: Immunofluorescence of SNAI1 in MDA-MB-231 cells. The assay is classed as cell-based, human. Conditions: 50 μM, 72 hours. The procedure: as §1
For assay [7], the system named is PD-L2. The assay is described as follows: Immunofluorescence of PD-L2 in MDA-MB-231 cells. In kind it is cell-based, human. To be noted: 50 μM, 72 hours, relative to the control. The procedure:
(§5) 1×10^4 MDA-MB-231 cells were treated with 50 μM P1, P2, P3 (synthesized in accordance with Example 5) or vehicle (water) for 72 hours. Cells were fixed with 3.7% formaldehyde and permeabilized with 2% Triton-X-100, then probed with a primary rabbit antibody to PD-L2, primary goat antibody to PD-L1 and primary mouse antibody to CSV, followed by the corresponding secondary antibody conjugated to anti-mouse Alexa-Fluor 568, anti-goat Alexa-Fluor 633 or anti-rabbit Alexa-Fluor 488. Confocal laser scanning microscopy was used to measure the TNFI and TCFI as described above. At least 20 individual cells were analyzed per sample.

Assay [8] deals with induced MCF7 cells. The assay is described as follows: FACS CSC inhibition in induced MCF7 cells. In kind it is cell-based, human. To be noted: induced MCF7 cells (PMA/TGF-β), 50 μM peptide, 48 hours. On the procedure:
P1 Analogues were synthesized in accordance with the procedure of Example 5. 4×10^4 MDA-MB-231 cells or 1×10^4 induced or non-induced MCF7 cells were seeded in a 12 well plate with 1 mL complete media overnight. Induced MCF7 cells were prepared by stimulating cells with PMA/TGF-β and incubating for 12 hours. Cells were treated with 50 μM test peptide (dissolved in water) for 48 hours. Cells were then washed twice with 1 mL PBS and harvested by trypsinisation. Non-adherent cells were removed during the washing steps. Adherent cells were collected, and were subsequently stained with anti-human CD44, CD24 and Hoechst 33342 antibodies on ice for 30 mins. FACS was performed on BD FACS LSRII to measure the percentage of CD44^hiCD24^lo CSCs by dividing CD44^hiCD24^lo events by total live cell counts (Hoechst negative population) (as described in Fillmore and Kuperwasser (2007) Breast Cancer Res, 9: 303). The percentage of viable cells was calculated by dividing total live cell events by total single cells as described previously (Siemann and Keng (1986), Cancer Res, 46: 3556-3559).

The subject of assay [9] is PD-L1. The assay is described as follows: Immunofluorescence (confocal) of PD-L1 in MDA-MB-231 cells, Example 6. In kind it is cell-based, human. To be noted: 50 μM, 72 hours. On the procedure:
as §2, §3

Assay [10] concerns SETDB1. The assay is described as follows: Immunofluorescence of SETDB1 in MDA-MB-231 cells. In kind it is cell-based, human. To be noted: 50 μM, 72 hours. The procedure: as §4
Assay [11] deals with cell surface vimentin (CSV). The assay is described as follows: Immunofluorescence of CSV in MDA-MB-231 cells, Example 14. Conditions: 50 μM, 72 hours. The assay is classed as cell-based, human. On the procedure:
as §5

Assay [12] concerns MDA-MB-231 cells. The assay is described as follows: FACS analysis of the cancer stem cell phenotype (CD44^high/CD24^low) in response to P1, P2 and P3. Conditions: 6.25-400 μM, 72 hours. The assay is classed as cell-based, human. The procedure: 5×10^4 MDA-MB-231 cells were seeded with 1 mL of complete DMEM in 12 well plates overnight. […] Samples were harvested by trypsinization followed by washing with DPBS containing 2% HI-FBS. FACS staining was performed using anti-human CD44-APC, anti-human CD24-PE, Hoechst and anti-human EpCAM antibody cocktails. Data was collected from a BD-FACSLSR-II flow cytometer. Treestar FlowJo was used for data analysis.

Assay [13] relates to EHTM2. The assay is described as follows: Immunofluorescence of EHTM2 in MDA-MB-231 cells. The assay is classed as cell-based, human. Conditions: 50 μM, 72 hours. On the procedure: as §4

“Also recorded” adds a separate entry of the source. Where a SMILES comes first, the peptide text is derived from it. The star is where a group is joined. Myristoyl = CCCCCCCCCCCCCC(=O)*

As to `CCCCCCCCCCCCCC(=O)N[C@@H](CC(C)C)C(=O)N[C@H](C(=O)N[C@@H](Cc1ccccc1)C(=O)N[C@H](C(=O)N[C@@H](Cc1ccccc1)C(=O)N[C@@H](CCCNC(=N)N)C(=O)N[C@@H](CC(C)C)C(=O)N[C@@H](CCCNC(=N)N)C(=O)N[C@@H](CCC(N)=O)C(=O)NCC(=O)N[C@@H](CCCNC(=N)N)C(=O)N[C@@H](CCSC)C(=O)N[C@@H](CCSC)C(=O)N[C@@H](CC(=O)O)C(=O)N[C@H](C(=O)N[C@@H](CCCCN)C(=O)N[C@@H](CCCCN)C(N)=O)C(C)C)[C@@H](C)CC)[C@@H](C)O` [Peptide P2, Myristoyl-LTFIFRLRQGRMMDVKK-NH2] (Myristoyl-LTFIFRLRQGRMMDVKK-NH2), the PD-L1 nuclear localization entry in assay [1] is reported as “significantly inhibited”. The “expression of EGFR” value in assay [2] is “uniformly inhibited”. Besides, in assay [3], the “Fn/c of acetylated PD-L1” value is “significantly reduced” and the “total nuclear fluorescence intensity (TNFI) of acetylated PD-L1” value (from here on “total nuclear fluorescence intensity”) is on record as “significantly reduced”. Also, the PD-1 nuclear localization entry in [4] is reported as “significantly inhibited”. Moreover, the “expression / nuclear localization of DMNTI” value in assay [5] is reported as “significantly abrogated”. In assay [6], the “expression of SNAI1” value is reported as “uniformly inhibited”. The PD-L2 nuclear localization entry in assay [7] is given as “significantly inhibited”. Besides, in assay [8], the “CSC inhibition (%)” value worked out at 59.93%. In addition, the “nuclear expression of PD-L1” value in assay [9] is on record as “inhibited”. For the same compound, in assay [10], the “expression / nuclear localization of SETDB1” value is listed as “significantly abrogated”. Besides, the CSV expression result in assay [11] is “significantly inhibited”. In addition, in assay [12], the “cancer stem cell phenotype (CD44^high/CD24^low)” value (shortened to “cancer stem cell phenotype”) is on record as “significantly inhibited”. Moreover, in assay [13], the “expression / localization of EHTM2” value is recorded as “significantly abrogated”.
With `CCCCCCCCCCCCCC(=O)N[C@@H](CC(C)C)C(=O)N[C@H](C(=O)N[C@@H](Cc1ccccc1)C(=O)N[C@H](C(=O)N[C@@H](Cc1ccccc1)C(=O)N[C@@H](CCCNC(=N)N)C(=O)N[C@@H](CC(C)C)C(=O)N[C@@H](CCCNC(=N)N)C(=O)N[C@@H](CCCCNC(C)=O)C(=O)NCC(=O)N[C@@H](CCCNC(=N)N)C(=O)N[C@@H](CCSC)C(=O)N[C@@H](CCSC)C(=O)N[C@@H](CC(=O)O)C(=O)N[C@H](C(=O)N[C@@H](CCCCN)C(=O)N[C@@H](CCCCN)C(N)=O)C(C)C)[C@@H](C)CC)[C@@H](C)O` [Peptide P3, Myristoyl-LTFIFRLRK(Ac)GRMMDVKK-NH2] (Myristoyl-LTFIFRLRK(Ac)GRMMDVKK-NH2), in assay [1], the PD-L1 nuclear localization result is listed as “significantly inhibited”. In [2], the “expression of EGFR” value is recorded as “uniformly inhibited”. For the same compound, in [3], the “Fn/c of acetylated PD-L1” value is “significantly reduced” and the “total nuclear fluorescence intensity” value is “significantly reduced”. In addition, in assay [4], the PD-1 nuclear localization result is given as “significantly inhibited”. For the same compound, the “expression / nuclear localization of DMNTI” value in assay [5] was “significantly abrogated”. In addition, the “expression of SNAI1” value in [6] is on record as “uniformly inhibited”. Further, in assay [7], the PD-L2 nuclear localization result is recorded as “significantly inhibited”. The “CSC inhibition (%)” value in assay [8] was found to be 53.67%. For the same compound, in assay [9], the “nuclear expression of PD-L1” value is “inhibited”. For the same compound, the “expression / nuclear localization of SETDB1” value in [10] was “significantly abrogated”. Further, the CSV expression entry in assay [11] is “significantly inhibited”. Further, the “cancer stem cell phenotype” value in [12] is given as “significantly inhibited; also recorded: greatest inhibition”. Also, the “expression / localization of EHTM2” value in [13] is given as “significantly abrogated”.
As for `CCCCCCCCCCCCCC(=O)N[C@@H](CC(C)C)C(=O)N[C@H](C(=O)N[C@@H](Cc1ccccc1)C(=O)N[C@H](C(=O)N[C@@H](Cc1ccccc1)C(=O)N[C@@H](CCCNC(=N)N)C(=O)N[C@@H](CC(C)C)C(=O)N[C@@H](CCCNC(=N)N)C(=O)N[C@@H](CCCCN)C(=O)NCC(=O)N[C@@H](CCCNC(=N)N)C(=O)N[C@@H](CCSC)C(=O)N[C@@H](CCSC)C(=O)N[C@@H](CC(=O)O)C(=O)N[C@H](C(=O)N[C@@H](CCCCN)C(=O)N[C@@H](CCCCN)C(N)=O)C(C)C)[C@@H](C)CC)[C@@H](C)O` [Peptide P1, Myristoyl-LTFIFRLRKGRMMDVKK-NH2] (Myristoyl-LTFIFRLRKGRMMDVKK-NH2), the PD-L1 nuclear localization result in assay [1] is on record as “significantly inhibited”. In addition, in assay [2], the “expression of EGFR” value is recorded as “uniformly inhibited”. Further, in assay [3], the “Fn/c of acetylated PD-L1” value is “significantly reduced” and the “total nuclear fluorescence intensity” value is listed as “significantly reduced”. Besides, the PD-1 nuclear localization result in assay [4] is “significantly inhibited”. For the same compound, the “expression / nuclear localization of DMNTI” value in [5] was “significantly abrogated”. Moreover, in [6], the “expression of SNAI1” value was “uniformly inhibited”. Further, the PD-L2 nuclear localization entry in assay [7] is recorded as “significantly inhibited”. Besides, the “CSC inhibition (%)” value in [8] came to 38.10%. The “nuclear expression of PD-L1” value in [9] is “inhibited”. Besides, in assay [10], the “expression / nuclear localization of SETDB1” value was “significantly abrogated”. In addition, the CSV expression entry in [11] was “significantly inhibited”. Also, the “cancer stem cell phenotype” value in assay [12] is recorded as “significantly inhibited”. In assay [13], the “expression / localization of EHTM2” value is reported as “significantly abrogated”.

Source of the values: patent US20200339691A1, “PROTEINACEOUS MOLECULES AND USES THEREFOR” (priority 2018, published 2020).
